# Measurements from patent US6914045B2, “Glycopeptide antibiotics” (Wyeth Holdings Corporation, priority 2001, dated 2005).
# What was measured:
# Experiment in all cases: in vitro antibacterial evaluation, MIC by broth dilution
# Assay type in all cases: cell-based
# Escherichia coli = details: 18 hours at 35° C.
# Description: (§1) The minimum inhibitory concentration (MIC), the lowest concentration of the antibiotic which inhibits growth of the test organism, is determined by the broth dilution method using Muller-Hinton II […] (Baltimore Biological Laboratories) following the recommendations of the National Committee for Clinical Laboratory Standards [Methods for dilution antimicrobial susceptibility tests for bacteria that grow aerobically, approved standard M7-A2, National Committee for Clinical Laboratory Standards, Villanova, Pa.].
# (§2) An inoculum level of 5×10^5 CFU/mL, and a range of antibiotic concentrations (64-0.06 μg/mL) is used. […] The test organisms include a spectrum of Gram-positive bacteria comprised of Staphylococcus sp., Streptococcus sp. and Enterococcus sp. These organisms include recent clinical isolates that are resistant to methicillin, penicillin and/or vancomycin.
# Staphylococcus sp. = details: broth dilution, 18 hours at 35° C.; for MIC Staphylococcus aureus (ATCC 29213): strain ATCC 29213; for MIC Staphylococcus aureus (GC 1131): strain GC 1131; for MIC Staphylococcus aureus (GC 4535): strain GC 4535; for MIC Staphylococcus aureus-SMITH (GC 4536): strain GC 4536
# Description: (§3) Methods for in vitro Antibacterial Evaluation (Table 1)
# as §1, §2
# Enterococcus sp. = details: broth dilution, 18 hours at 35° C.
# Description: as §3, §1, §2
# [1] = Enterococcus faecalis (ATCC 29212)
# [2] = Enterococcus faecalis (GC 2242)
# [3] = Enterococcus faecalis (GC 4552)
Compound,MIC Escherichia coli (GC 4559) (Escherichia coli) [µg/mL],MIC Escherichia coli (GC 4560) (Escherichia coli) [µg/mL],MIC Coagulase Negative Staphylococcus (GC 4537) (Staphylococcus sp.) [µg/mL],MIC Coagulase Negative Staphylococcus (GC 4538) (Staphylococcus sp.) [µg/mL],MIC Coagulase Negative Staphylococcus (GC 4547) (Staphylococcus sp.) [µg/mL],MIC Coagulase Negative Staphylococcus (GC 4537) (Staphylococcus sp.; strain GC 4537) [µg/mL],MIC Coagulase Negative Staphylococcus (GC 4538) (Staphylococcus sp.; strain GC 4538) [µg/mL],MIC Coagulase Negative Staphylococcus (GC 4547) (Staphylococcus sp.; strain GC 4547) [µg/mL],MIC Staphylococcus aureus (ATCC 29213) (Staphylococcus sp.) [µg/mL],MIC Staphylococcus aureus (GC 1131) (Staphylococcus sp.) [µg/mL],MIC Staphylococcus aureus (GC 4535) (Staphylococcus sp.) [µg/mL],MIC Staphylococcus aureus-SMITH (GC 4536) (Staphylococcus sp.) [µg/mL],MIC Enterococcus faecalis (ATCC 29212) (Enterococcus sp.; [1]) [µg/mL],MIC Enterococcus faecalis (GC 2242) (Enterococcus sp.; [2]) [µg/mL],MIC Enterococcus faecalis (GC 4552) (Enterococcus sp.; [3]) [µg/mL],MIC Enterococcus faecalis (ATCC 29212) (Enterococcus sp.) [µg/mL],MIC Enterococcus faecalis (GC 2242) (Enterococcus sp.) [µg/mL],MIC Enterococcus faecalis (GC 4552) (Enterococcus sp.) [µg/mL]
"CCCCCCC(=O)OCC1OC(N2C(=N)NCC2C(O)C2NC(=O)C(C(O)C3CNC(=N)N3)NC(=O)C(Cc3ccc(OC4OC(CO)C(OC5OC(CO)C(O)C(O)C5O)C(O)C4O)cc3)NC(=O)C(C(C)c3ccccc3)NC(=O)CNC(=O)C(CO)NC2=O)C(O)C(O)C1O (stereo not drawn) [Example 97, Cyclo[glycyl-β-methylphenylalanyl-O-(4-O-hexopyranosylhexolpyranosyl)tyrosyl-3-(2-iminoimidazolidin-4-yl)seryl-3-[3-(6-O-heptanoylhexopyranosyl)-2-iminoimidazolidin-4-yl]seryl-seryl]]",>64,2,>64,>64,>64,>64,>64,>64,>64,>64,>64,>64,>64,>64,>64,>64,>64,>64
CC(c1ccccc1)C1NC(=O)CNC(=O)C(CO)NC(=O)C(C(O)C2CNC(=N)N2C2OC(CO)C(O)C(O)C2O)NC(=O)C(C(O)C2CNC(=N)N2)NC(=O)C(Cc2ccc(OC3OC(COC(=O)Cc4ccccc4)C(OC4OC(CO)C(O)C(O)C4O)C(O)C3O)cc2)NC1=O (stereo not drawn) [Example 98b],>128,2,16,8,8,16,8,8,16,16,16,8,64,64,128,64,64,128
